From patent US7060822B1, “2-pyrazolin-5-ones” (Abbott GmbH & Co. KG, priority 1999, dated 2006)

Row | Structure (SMILES) | melting point
1 | Cc1cc(C2=NNC(=O)C2=Cc2[nH]c(C)c(CN(C)C)c2C)no1 [Example 177, 4-[(3,5-Dimethyl-4-dimethylaminomethylpyrrol-2-yl)methylene]-3-(5-methyl-3-isoxazolyl)-2-pyrazolin-5-one] | 242 to 244 °C
2 | Cc1[nH]c(C=C2C(=O)NN=C2c2cnccn2)c(C)c1CN1CCC(O)CC1 [Example 178, 4-{[3,5-Dimethyl-4-(4-hydroxypiperidinomethyl)pyrrol-2-yl]methylene}-3-pyrazinyl-2-pyrazolin-5-one] | 255 to 257 °C
3 | Cc1[nH]c(C=C2C(=O)NN=C2c2cnccn2)c(C)c1CN.O=C(O)/C=C\C(=O)O [Example 179, 4-[(4-Aminomethyl-3,5-dimethylpyrrol-2-yl)methylene]-3-pyrazinyl-2-pyrazolin-5-one maleate] | 205 to 208 °C
4 | O=C1NN=C(c2cnccn2)C1=Cc1cc(CN2CCC(Cc3ccccc3)CC2)c[nH]1 [Example 180, 4-{[4-(4-Benzylpiperidino)methylpyrrol-2-yl]methylene}-3-pyrazinyl-2-pyrazolin-5-one] | 211 to 214 °C
5 | Cc1[nH]c(C=C2C(=O)NN=C2c2cnccn2)c(C)c1CCO [Example 181, 4-{[3,5-Dimethyl-4-(2-hydroxyethyl)pyrrol-2-yl]methylene}-3-pyrazinyl-2-pyrazolin-5-one] | 306 to 308 °C
6 | Cc1[nH]c(C=C2C(=O)NN=C2C2CC2)c(C)c1CCO [Example 184, 3-Cyclopropyl-4-{[3,5-Dimethyl-4-(2-hydroxyethyl)pyrrol-2-yl]methylene}-2-pyrazolin-5-one] | 244 to 246 °C
7 | CCNCCc1c(C)[nH]c(C=C2C(=O)NN=C2c2cnccn2)c1C [Example 185, 4-{[3,5-Dimethyl-4-(2-ethylaminoethyl)pyrrol-2-yl]methylene}-3-pyrazinyl-2-pyrazolin-5-one] | 192 to 194 °C
8 | CCN(CC)CCCc1c(C)[nH]c(C=C2C(=O)NN=C2c2cnccn2)c1C [Example 186, 4-{[4-(3-Diethylaminopropyl)-3,5-dimethylpyrrol-2-yl]methylene}-3-pyrazinyl-2-pyrazolin-5-one] | 208.1 °C
9 | Cc1[nH]c(C=C2C(=O)NN=C2c2cnccn2)c(C)c1CCCO [Example 187, 4-{[3,5-Dimethyl-4-(3-hydroxypropyl)pyrrol-2-yl]methylene}-3-pyrazinyl-2-pyrazolin-5-one] | 273 to 275 °C
10 | CCOC1=NNC(=O)C1=Cc1[nH]c(C)c(C(=O)CN(C)C)c1C [Example 189, 4-[(3,5-Dimethyl-4-dimethylaminoacetylpyrrol-2-yl)methylene]-3-ethoxy-2-pyrazolin-5-one] | 198 °C
11 | Cc1[nH]c(C=C2C(=O)NN=C2c2cnccn2)c(C)c1CCN(C)C [Example 191, 4-{[3,5-Dimethyl-4-(2-dimethylaminoethyl)pyrrol-2-yl]methylene}-3-pyrazinyl-2-pyrazolin-5-one] | 216 °C
12 | Cc1[nH]c(C=C2C(=O)NN=C2c2cnccn2)c(C)c1CCCCO [Example 192, 4-{[3,5-Dimethyl-4-(4-hydroxybutyl)pyrrol-2-yl]methylene}-3-pyrazinyl-2-pyrazolin-5-one] | 222 °C
13 | CCN(CC)CCCCc1c(C)[nH]c(C=C2C(=O)NN=C2c2cnccn2)c1C [Example 193, 4-{[4-(4-Diethylaminobutyl)-3,5-dimethylpyrrol-2-yl]methylene}-3-pyrazinyl-2-pyrazolin-5-one] | 184 °C
14 | CCN(CC)CC(=O)c1c(C)[nH]c(C=C2C(=O)NN=C2c2cnccn2)c1C [Example 196, 4-[(4-Diethylaminoacetyl-3,5-dimethylpyrrol-2-yl)methylene]-3-pyrazinyl-2-pyrazolin-5-one] | 199 °C
15 | Cc1cc(C(C)C)c(C=C2C(=O)NN=C2c2cnccn2)[nH]1 [Example 197, 4-[(3-Isopropyl-5-methylpyrrol-2-yl)methylene]-3-pyrazinyl-2-pyrazolin-5-one] | 244 °C
16 | Cc1[nH]c(C=C2C(=O)NN=C2c2cnccn2)c(C(C)C)c1CN(C)C [Example 199, 4-[(Dimethylaminomethyl-3-isopropyl-5-methylpyrrol-2-yl)methylene]-3-pyrazinyl-2-pyrazolin-5-one] | 227 °C
17 | Cc1[nH]c(C=C2C(=O)NN=C2C2CC2)c(C(C)C)c1CN(C)C [Example 200, 3-Cyclopropyl-4-[(dimethylaminomethyl-3-isopropyl-5-methylpyrrol-2-yl)methylene]-2-pyrazolin-5-one] | 190 to 192 °C
18 | Cc1[nH]c(C=C2C(=O)NN=C2c2cnccn2)c(C)c1CCNC1CC1 [Example 203, 4-{[4-(2-Cyclopropylaminoethyl)-3,5-dimethylpyrrol-2-yl]methylene}-3-pyrazinyl-2-pyrazolin-5-one] | 210 to 218 °C
19 | Cc1[nH]c(C=C2C(=O)NN=C2c2cnccn2)c(C)c1CCNCc1ccncc1 [Example 204, 4-{{3,5-Dimethyl-4-[2-(4-pyridylmethylamino)ethyl]pyrrol-2-yl}methylene}-3-pyrazinyl-2-pyrazolin-5-one] | 203 to 205 °C
20 | CCN(CC)CCc1c(C)[nH]c(C=C2C(=O)NN=C2c2ncccn2)c1C [Example 206, 4-{[4-(2-Diethylaminoethyl)-3,5-dimethylpyrrol-2-yl]methylene}-3-(2-pyrimidinyl)-2-pyrazolin-5-one] | 144 to 146 °C
21 | CCN(CC)CCc1c(C)[nH]c(C=C2C(=O)NN=C2c2cccnn2)c1C [Example 207, 4-{[4-(2-Diethylaminoethyl)-3,5-dimethylpyrrol-2-yl]methylene}-3-(3-pyridazinyl)-2-pyrazolin-5-one] | 218 to 220 °C
22 | CCN(CC)CCc1c(C)[nH]c(C=C2C(=O)NN=C2c2ccncn2)c1C [Example 208, 4-{[4-(2-Diethylaminoethyl)-3,5-dimethylpyrrol-2-yl]methylene}-3-(4-pyrimidinyl)-2-pyrazolin-5-one] | 220 °C
23 | CCN(CC)CCc1c(C)[nH]c(C=C2C(=O)NN=C2c2ccnnc2)c1C [Example 209, 4-{[4-(2-Diethylaminoethyl)-3,5-dimethylpyrrol-2-yl]methylene}-3-(4-pyridazinyl)-2-pyrazolin-5-one] | 212 to 216 °C
24 | O=C1NN=C(Cc2ccccc2)C1=Cc1c[nH]c2ccccc12 [Example 210, 3-Benzyl-4-[(indol-3-yl)methylene]-2-pyrazolin-5-one] | 292 to 295 °C
25 | O=C1NN=C(Cc2ccccc2)C1=Cc1cn(CCCCO)c2ccccc12 [Example 211, 3-Benzyl-4-{[1-(4-hydroxybutyl)indol-3-yl]methylene}-2-pyrazolin-5-one] | 217 to 220 °C
26 | COc1ccc(OCC2=NNC(=O)C2=Cc2c[nH]c3ccccc23)cc1 [Example 212, 4-[(Indol-3-yl)methylene]-3-(4-methoxyphenyloxymethyl)-2-pyrazolin-5-one] | 266 to 268 °C
27 | O=C1NN=C(COc2ccccc2)C1=Cc1c[nH]c2ccccc12 [Example 213, 4-[(Indol-3-yl)methylene]-3-phenyloxymethyl-2-pyrazolin-5-one] | 284 to 286 °C
28 | O=C1NN=C(COc2ccc(Cl)cc2)C1=Cc1c[nH]c2ccccc12 [Example 214, 3-(4-Chlorophenyloxymethyl)-4-[(indol-3-yl)methylene]-2-pyrazolin-5-one] | 264 to 267 °C
